Measured values from ChEMBL document CHEMBL5625217, “New bysspectin A derivatives as potent inhibitors of human carboxylesterase 2A” (Eur J Med Chem, 2023).

Assays:
[1] = Inhibition of human CES2A using fluorescein diacetate as fluorescent substrate preincubated for 3 mins followed by substrate addition and measured after 30 mins by fluorescence based analysis
[2] = Inhibition of human CES1A using NLMe as substrate preincubated for 3 mins followed by substrate addition and measured after 20 mins by Spectra max microplate reader analysis
[3] = Metabolic stability in human liver microsomes assessed as half life at 10 uM preincubated for 3 mins followed by NADPH addition and measured upto 120 mins by HPLC analysis; assay type: ADME, Microsome; conditions: time < 123 min
Homo sapiens = species on record: Homo sapiens; assay: Selectivity ratio of IC50 for human CES1A to IC50 for human CES2A
[4] = Binding affinity to human CES2A assessed as inhibition constant using fluorescein diacetate as fluorescent substrate preincubated for 3 mins followed by substrate addition and measured after 30 mins by Lineweaver-Burk plot analysis
HepG2 = assay: Cytotoxicity against human HepG2 cells assessed as reduction in cell viability at 10 uM measured after 24 hrs by CCK-8 method; assay type: toxicity, cell-based; conditions: hepg2, 24 h
[5] = Inhibition of intracellular CES2A in human HepG2 cells assessed as reduction in NCEN hydrolysis incubated for 1 hr; assay type: cell-based
[6] = Metabolic stability in human liver microsomes assessed as half life at 10 uM preincubated for 3 mins followed by UDPGA addition and measured upto 120 mins by HPLC analysis; assay type: ADME, Microsome; conditions: time < 123 min

## CCCCCCC(=O)c1cccc2oc(-c3ccc(C)cc3C(=O)O)cc12
[1]
  IC50: 490 nM

## CCCCCCCCC(=O)c1cccc2oc(-c3ccc(C)cc3C(=O)OC)cc12
[1]
  IC50: 310 nM

## CCCCCCCCC(=O)c1cccc2oc(-c3ccc(C)cc3C(=O)O)cc12
[1]
  IC50: 110 nM

## CCCCCCCCC(=O)c1cccc2oc(-c3ccccc3)cc12
[1]
  IC50: 5410 nM

## CCCCCCCCC(=O)c1cccc2oc(-c3cc(OC)ccc3O)cc12
[1]
  IC50: 22 nM
[2]
  IC50: 2610 nM

## CCCCCCC(=O)c1cccc2oc(-c3ccc(C)cc3C(=O)OC)cc12
[1]
  IC50: 300 nM

## CCCC(=O)c1cccc2oc(-c3cc(OC)ccc3O)cc12
[1]
  IC50: 21 nM

## CCCCCCC(=O)c1cccc2oc(-c3ccccc3C(=O)OC)cc12
[1]
  IC50: 250 nM

## CCCCCCC(=O)c1cccc2oc(-c3cc(OC)ccc3O)cc12
[1]
  IC50: 8 nM

## C[C@]12CC[C@H]3[C@@H](CCC4=CC(=O)CC[C@@]43C)[C@@H]1CC[C@@H]2O [TESTOSTERONE]
[3]
  half-life at 10 µM: 0.46 h

## CCCCCCC(=O)c1cccc2oc(-c3cc(C(=O)OC)ccc3O)cc12
[1]
  IC50: 35 nM

## CCCCCCCCC(=O)c1cccc(O)c1-c1cc2ccc(OC)cc2o1
[1]
  IC50: 190 nM

## CCCCCCCCC(=O)c1cccc(O)c1-c1cc2c(C(=O)CCCCCC)cccc2o1
[1]
  IC50: 58 nM

## CCCCCCCCC(=O)c1cccc(OC(C)=O)c1-c1cc2c(C(=O)CCCCCCCC)cccc2o1
[1]
  IC50: 690 nM

## CCCCCCCCC(=O)c1cccc(O)c1-c1cc2cc(C)ccc2o1
[1]
  IC50: 84 nM

## CCCCCCCCC(=O)c1cccc2oc(-c3ccccc3C(=O)OC)cc12
[1]
  IC50: 100 nM

## CCCCCCCCC(=O)c1cccc2oc(-c3c(O)cccc3C(=O)CCC)cc12
[1]
  IC50: 29 nM

## CCCCCCCCC(=O)c1cccc2oc(-c3cc(C)ccc3O)cc12
[1]
  IC50: 54 nM

## CCCCCCCCC(=O)c1cccc2oc(-c3c(O)cccc3C(=O)CCCCCC)cc12
[1]
  IC50: 54 nM

## CCCCCCCCC(=O)c1cccc(O)c1-c1cc2c(C(=O)CCC)cccc2o1
[1]
  IC50: 120 nM

## CCCCCCCCC(=O)c1cccc(O)c1-c1cc2ccccc2o1
[1]
  IC50: 230 nM

## CCCCCCC(=O)c1cccc2oc(-c3cc(OCC)ccc3O)cc12
[1]
  IC50: 9 nM

## CCCCCCC(=O)c1cccc2oc(-c3cc(C(=O)O)ccc3O)cc12
[1]
  IC50: 200 nM

## CCCCCCC(=O)c1c(C)ccc2oc(-c3cc(OC)ccc3O)cc12
[1]
  IC50: 2 nM
[2]
  IC50: 7260 nM
Homo sapiens
  Ratio IC50: 4540
[4]
  Ki: 1.4 nM
HepG2
  Activity: Non-Toxic
[5]; Homo sapiens, HepG2, 1 h, read-out: IC50
  IC50: 52 nM
[5]; hepg2
  IC50: Dose-Dependent Effect
[3]
  half-life at 10 µM: 2.1 h
[6]
  half-life at 10 µM: 1.62 h

## CCCCCCCCC(=O)c1cccc(OC)c1-c1cc2c(C(=O)CCCCCCCC)cccc2o1
[1]
  IC50: 600 nM

## CCCCCCCCC(=O)c1cccc(O)c1-c1cc2c(C(=O)CCCCCCCC)cccc2o1
[1]
  IC50: 1090 nM

## CCCCCCCCC(=O)c1cccc2oc(-c3ccccc3O)cc12
[1]
  IC50: 32 nM

## CCCCCCCCC(=O)c1cccc2oc(-c3ccc(OC)cc3O)cc12
[1]
  IC50: 140 nM

## O=c1ccc2ccc(O)cc2o1 [UMBELLIFERONE]
[6]
  half-life at 10 µM: 0.304 h

## CCCCCCCCC(=O)c1cccc(O)c1-c1cc2cc(OC)ccc2o1
[1]
  IC50: 100 nM

## CCCCCCC(=O)c1cccc2oc(-c3ccccc3C(=O)O)cc12
[1]
  IC50: 360 nM

## CCCCCCCCC(=O)c1cccc2oc(-c3ccccc3C(=O)O)cc12
[1]
  IC50: 130 nM

## CCCCCCC(=O)c1cccc2oc(-c3cc(C(F)(F)F)ccc3O)cc12
[1]
  IC50: 20 nM

## CN(C)C(=O)C(CCN1CCC(O)(c2ccc(Cl)cc2)CC1)(c1ccccc1)c1ccccc1 [LOPERAMIDE]
[1]
  IC50: 350 nM
